Experiments:
BvHSS [1] = target: T1, BvHSS (Blastochloris viridis, UniProt O32323); experiment: X-ray crystallography; assay type: binding
T1 construct: gene hss; full-length BvHSS from pETM14, E. coli BL21 (DE3); N-terminal 6xHis-tag cut with HRV3C protease; homodimer; active site within one subunit; domains cover residues 3-477; first four amino acids not traced
T1 sequence (O32323 1-477): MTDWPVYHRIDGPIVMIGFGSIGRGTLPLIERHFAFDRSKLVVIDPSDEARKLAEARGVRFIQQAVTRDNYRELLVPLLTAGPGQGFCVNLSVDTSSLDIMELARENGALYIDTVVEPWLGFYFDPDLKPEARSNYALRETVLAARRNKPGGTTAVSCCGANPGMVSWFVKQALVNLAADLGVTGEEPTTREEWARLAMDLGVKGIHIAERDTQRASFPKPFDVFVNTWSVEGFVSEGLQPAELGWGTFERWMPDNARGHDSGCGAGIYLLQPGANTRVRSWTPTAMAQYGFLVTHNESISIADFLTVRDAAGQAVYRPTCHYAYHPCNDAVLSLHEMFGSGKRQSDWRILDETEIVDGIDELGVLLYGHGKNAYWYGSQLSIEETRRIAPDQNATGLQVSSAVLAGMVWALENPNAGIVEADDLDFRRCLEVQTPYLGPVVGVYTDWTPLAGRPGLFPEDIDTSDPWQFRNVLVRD

BvHSS [2] = target: T2, BvHSS (Blastochloris viridis, UniProt O32323, H296S); experiment: X-ray crystallography; assay type: binding; details: pH 4.6
T2 construct: gene hss; full-length BvHSS from pETM14, E. coli BL21 (DE3); N-terminal 6xHis-tag cut with HRV3C protease; homodimer; active site within one subunit; domains cover residues 3-477; first four amino acids not traced

BvHSS [3] = target: T3, BvHSS (Blastochloris viridis, UniProt O32323, E237Q); experiment: X-ray crystallography; assay type: binding; details: co-crystal with 0.2 M AGM and 0.2 M PUT; no polyamine in active site; pH 4.6
T3 construct: gene hss; full-length BvHSS from pETM14, E. coli BL21 (DE3); N-terminal 6xHis-tag cut with HRV3C protease; homodimer; active site within one subunit; domains cover residues 3-477; first four amino acids not traced

BvHSS [4] = target: T1, BvHSS; experiment: X-ray crystallography; assay type: biochemical; details: DAP co-crystal soaked 300 s with 0.2 M PUT; product formed in crystal; pH 4.8; active site, subunit A; transition-close state with partial Schiff base, modelled as 37Z
[5] = target: Blastochloris viridis homospermidine synthase (Blastochloris viridis) (UniProt O32323); experiment: crystal structure; hanging-drop vapour diffusion at 18 °C, reservoir 100 mM sodium acetate pH 4.6-4.8; NAD+ bound, with or without polyamines; two subunits (A and B) in the asymmetric unit

T2 sequence (O32323 whole entry H296S, the tested form may be a part): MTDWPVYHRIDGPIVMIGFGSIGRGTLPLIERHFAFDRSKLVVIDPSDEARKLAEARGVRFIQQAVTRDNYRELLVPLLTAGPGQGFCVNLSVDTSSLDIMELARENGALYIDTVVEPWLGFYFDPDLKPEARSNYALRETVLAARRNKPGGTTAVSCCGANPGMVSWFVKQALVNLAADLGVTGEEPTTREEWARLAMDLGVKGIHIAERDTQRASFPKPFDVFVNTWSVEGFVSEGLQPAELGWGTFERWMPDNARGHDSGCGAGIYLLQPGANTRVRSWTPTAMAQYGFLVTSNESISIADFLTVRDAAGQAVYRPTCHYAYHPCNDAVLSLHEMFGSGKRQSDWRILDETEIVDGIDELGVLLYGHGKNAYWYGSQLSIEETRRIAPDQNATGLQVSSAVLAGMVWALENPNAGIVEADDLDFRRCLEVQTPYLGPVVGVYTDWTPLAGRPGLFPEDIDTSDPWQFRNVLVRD
T3 sequence (O32323 whole entry E237Q, the tested form may be a part): as the sequence (O32323 whole entry H296S, the tested form may be a part) above, with E237Q, S296H counted along it

NCCCN [1,3-diaminopropane]
X-ray crystallography (BvHSS [1]; co-crystal with 0.2 M DAP and 0.2 M PUT, NAD+ bound, pH 4.6, active site, second DAP at the ionic slide (pocket entrance), Table 3 misprints the PDB id as 4XQE): Two DAP molecules were found at two different positions in subunit A (PDB ID: 4XQC)

NC(=O)c1ccc[n+]([C@@H]2O[C@H](COP(=O)(O)OP(=O)(O)OC[C@H]3O[C@@H](n4cnc5c(N)ncnc54)[C@H](O)[C@@H]3O)[C@@H](O)[C@H]2O)c1 [NAD^+]
X-ray crystallography (BvHSS [2]; co-crystal with 0.2 M AGM): BvHSS and BvHSS variants with bound NAD^+ in complex with various polyamines | X-ray crystallography (BvHSS [1]; no polyamine, pH 4.6, non-covalently bound prosthetic group): with bound NAD^+ (Protein Data Bank [PDB] ID: 4PLP) | X-ray crystallography (BvHSS [3]): BvHSS and BvHSS variants with bound NAD^+ in complex with various polyamines

N=C(N)NCCCCN [agmatine]
X-ray crystallography (BvHSS [2]; co-crystal with 0.2 M AGM, NAD+ bound, active site): the variant H296S was found to bind AGM within the active site

NCCCCN [putrescine]
X-ray crystallography (BvHSS [2]; AGM co-crystal soaked 300 s with 0.2 M PUT, NAD+ bound, active site, partial occupancy beside AGM, enzymatically inactive variant): partial replacement of AGM with PUT (Fig. 6f) | X-ray crystallography (BvHSS [1]; DAP co-crystal soaked 300 s with 0.2 M PUT, NAD+ bound, pH 4.8, inner binding site, subunit B, transition-close state): The active site of BvHSS with bound PUT (PDB ID: 4TVB, subunit B)

NCCCCNCCCCN [sym-homospermidine, bis(4-aminobutyl)amine]
X-ray crystallography (BvHSS [4]): transition close state of the reduction to HSP bound in subunit A

Blastochloris viridis homospermidine synthase (from UniProt O32323 1-477) (enzyme)
stoichiometry N [5]: 2

From publication PMC4725965, “Comprehensive Structural Characterization of the Bacterial Homospermidine Synthase–an Essential Enzyme of the Polyamine Metabolism” (Scientific Reports, 2016)
